The source of these data is ChEMBL document CHEMBL1135818, “A new, potent urotensin II receptor peptide agonist containing a Pen residue at the disulfide bridge” (J Med Chem, 2002).

Bridge positions count the residues as written; N and C are the ends. Square brackets hold non-standard residues; d marks the D form. Peptide text beside a SMILES is read from it. dPen = CC(C)(S)[C@@H](N)C(=O)O; Pen = CC(C)(S)[C@H](N)C(=O)O

In assay [1] the target is T1, Urotensin-2 receptor (Homo sapiens) (UniProt Q9UKP6).
T1 sequence (whole entry): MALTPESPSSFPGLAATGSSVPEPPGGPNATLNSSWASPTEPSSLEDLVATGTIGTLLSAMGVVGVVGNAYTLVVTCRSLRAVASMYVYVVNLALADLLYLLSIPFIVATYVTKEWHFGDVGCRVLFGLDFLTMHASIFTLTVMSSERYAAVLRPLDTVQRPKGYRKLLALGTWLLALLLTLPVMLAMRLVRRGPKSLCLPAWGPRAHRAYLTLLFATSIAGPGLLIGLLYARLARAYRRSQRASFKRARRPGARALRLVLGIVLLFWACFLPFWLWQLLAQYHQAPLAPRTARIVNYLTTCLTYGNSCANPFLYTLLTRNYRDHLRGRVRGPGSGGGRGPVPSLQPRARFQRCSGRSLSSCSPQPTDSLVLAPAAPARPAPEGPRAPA
The note with it: CHO-K1.

The target in assay [2] is T2, Urotensin-2 receptor (Homo sapiens, UniProt Q9UKP6).
T2 sequence (Q9UKP6 whole entry): T1 sequence (whole entry)
The experiment in a line: Ability to displace radioligand [125I]Tyr-hU-II from human recombinant Urotensin 2 receptor in CHO-K1 cells. In kind it is cell-based.

As to `CC(C)[C@H](NC(=O)[C@@H]1NC(=O)[C@H](Cc2ccc(O)cc2)NC(=O)[C@H](CCCCN)NC(=O)[C@H](Cc2c[nH]c3ccccc23)NC(=O)[C@H](Cc2ccccc2)NC(=O)[C@H](NC(=O)[C@@H](N)CC(=O)O)CSSC1(C)C)C(=O)O`, in assay [1], the pD2 came to 6.7.

Turning to `CC(C)[C@H](NC(=O)[C@H]1NC(=O)[C@H](Cc2ccc(O)cc2)NC(=O)[C@H](CCCCN)NC(=O)[C@H](Cc2c[nH]c3ccccc23)NC(=O)[C@H](Cc2ccccc2)NC(=O)[C@@H](NC(=O)[C@@H](N)CC(=O)O)C(C)(C)SSC1(C)C)C(=O)O` (H-D[Pen]FWKY[Pen]V-OH; disulfide 2-7), the “Log Ki” value in assay [2] is -8.9.

`CC(C)[C@H](NC(=O)[C@@H]1CSSC[C@@H](NC(=O)[C@@H](N)CC(=O)O)C(=O)N[C@@H](Cc2ccccc2)C(=O)N[C@@H](Cc2c[nH]c3ccccc23)C(=O)N[C@@H](CCCCN)C(=O)N[C@@H](Cc2ccc(O)cc2)C(=O)N1)C(=O)O` (H-D[dC]FWKYCV-OH; disulfide 2-7): in assay [1], the pD2 is 8.6.

On to `CC(C)[C@H](NC(=O)[C@H]1NC(=O)[C@H](Cc2ccc(O)cc2)NC(=O)[C@H](CCCCN)NC(=O)[C@H](Cc2c[nH]c3ccccc23)NC(=O)[C@H](Cc2ccccc2)NC(=O)[C@@H](NC(=O)[C@@H](N)CC(=O)O)CSSC1(C)C)C(=O)O`, for which the “Log Ki” value in assay [2] is listed as -7.9.

Compound `CC(C)[C@H](NC(=O)[C@@H]1CSSC[C@@H](NC(=O)[C@H](CC(=O)O)NC(=O)[C@H]2CCCN2C(=O)[C@@H](NC(=O)[C@@H](N)CCC(=O)O)[C@@H](C)O)C(=O)N[C@H](Cc2ccccc2)C(=O)N[C@@H](Cc2c[nH]c3ccccc23)C(=O)N[C@H](CCCCN)C(=O)N[C@@H](Cc2ccc(O)cc2)C(=O)N1)C(=O)O` gave a pD2 in assay [1] of 8.3.

Consider `CC(C)[C@H](NC(=O)[C@@H]1CSSC(C)(C)[C@@H](NC(=O)[C@@H](N)CC(=O)O)C(=O)N[C@@H](Cc2ccccc2)C(=O)N[C@@H](Cc2c[nH]c3ccccc23)C(=O)N[C@@H](CCCCN)C(=O)N[C@@H](Cc2ccc(O)cc2)C(=O)N1)C(=O)O` (H-D[dPen]FWKYCV-OH; disulfide 2-7), for which the pD2 in assay [1] was 9.6.

In assay [1], `CC(C)[C@H](NC(=O)[C@@H]1NC(=O)[C@H](Cc2ccc(O)cc2)NC(=O)[C@H](CCCCN)NC(=O)[C@H](Cc2c[nH]c3ccccc23)NC(=O)[C@H](Cc2ccccc2)NC(=O)[C@H](NC(=O)[C@@H](N)CC(=O)O)C(C)(C)SSC1(C)C)C(=O)O` (H-D[dPen]FWKY[dPen]V-OH; disulfide 2-7) showed a pD2 of 8.2.
